Measured values: ChEMBL document CHEMBL1152000, “Anti-allergy agents. 3. Angular tricyclic ether derivatives of the 1,8-naphthyridin-2(1H)-one ring system” (1994)

What was measured:
Assay type in all cases: functional
[1] = organism: Cavia porcellus; test: In vitro percent inhibition of LTD4 release from sensitized guinea pig lung fragment at dose of 3 uM
[2] = tested on: Cavia porcellus; test: In vivo percent inhibition of ovalbumin induced bronchospasm in sensitized guinea pig after peroral administration at dose of 2 mg/kg for single dose; conditions: route oral
[3] = organism: Cavia porcellus; test: In vitro percent inhibition of LTD4 release from sensitized guinea pig lung fragment at dose of 1 uM
[4] = tested on: Cavia porcellus; test: In vivo percent inhibition of ovalbumin induced bronchospasm in sensitized guinea pig after peroral administration at dose of 1 mg/kg for single dose; conditions: route oral
[5] = tested on: Cavia porcellus; test: In vivo percent inhibition of ovalbumin induced bronchospasm in sensitized guinea pig after peroral administration at dose of 0.25 mg/kg for single dose; conditions: route oral
[6] = tested on: Cavia porcellus; test: In vivo percent inhibition of ovalbumin induced bronchospasm in sensitized guinea pig after peroral administration at dose of 0.5 mg/kg for multiple dose; conditions: route oral
[7] = tested on: Cavia porcellus; test: In vivo percent inhibition of ovalbumin induced bronchospasm in sensitized guinea pig after peroral administration at dose of 0.5 mg/kg for single dose; conditions: route oral
[8] = organism: Cavia porcellus; test: In vitro percent inhibition of LTD4 release from sensitized guinea pig lung fragment at dose of 10 uM
[9] = tested on: Cavia porcellus; test: In vivo percent inhibition of ovalbumin induced bronchospasm in sensitized guinea pig after peroral administration at dose of 12 mg/kg for single dose; conditions: route oral
[10] = tested on: Cavia porcellus; test: In vivo percent inhibition of ovalbumin induced bronchospasm in sensitized guinea pig after peroral administration at dose of 25 mg/kg for single dose; conditions: route oral
[11] = tested on: Cavia porcellus; test: In vivo percent inhibition of ovalbumin induced bronchospasm in sensitized guinea pig after peroral administration at dose of 3 mg/kg for single dose; conditions: route oral
[12] = tested on: Cavia porcellus; test: In vivo percent inhibition of ovalbumin induced bronchospasm in sensitized guinea pig after peroral administration at dose of 6.25 mg/kg for multiple dose; conditions: route oral
[13] = tested on: Cavia porcellus; test: In vivo percent inhibition of ovalbumin induced bronchospasm in sensitized guinea pig after peroral administration at dose of 12.5 mg/kg for multiple dose; conditions: route oral
[14] = tested on: Cavia porcellus; test: In vivo percent inhibition of ovalbumin induced bronchospasm in sensitized guinea pig after peroral administration at dose of 10 mg/kg for single dose; conditions: route oral
[15] = tested on: Cavia porcellus; test: In vivo percent inhibition of ovalbumin induced bronchospasm in sensitized guinea pig after peroral administration at dose of 2 mg/kg for multiple dose; conditions: route oral
[16] = tested on: Cavia porcellus; test: In vivo percent inhibition of ovalbumin induced bronchospasm in sensitized guinea pig after peroral administration at dose of 1 mg/kg for multiple dose; conditions: route oral
[17] = tested on: Cavia porcellus; test: In vivo percent inhibition of ovalbumin induced bronchospasm in sensitized guinea pig after peroral administration at dose of 3.13 mg/kg for multiple dose; conditions: route oral
[18] = tested on: Cavia porcellus; test: In vivo percent inhibition of ovalbumin induced bronchospasm in sensitized guinea pig after peroral administration at dose of 5 mg/kg for single dose; conditions: route oral

## COc1ccc(-n2c(=O)c3c(c4cccnc42)OCC3)cc1
[1]
  inhibition at 3 µM: 17%

## CC1Cc2c(c3cccnc3n(-c3cccc(Cl)c3)c2=O)O1 (stereo unspecified)
[2]
  inhibition in vivo at 2 mg/kg: 38%
[3]
  inhibition at 1 µM: 64%

## O=c1c2c(c3cccnc3n1-c1cccc(Cl)c1)OCCCC2
[4]
  inhibition in vivo at 1 mg/kg: 74%
[2]
  inhibition in vivo at 2 mg/kg: 85%
[1]
  inhibition at 3 µM: 62%
[5]
  inhibition in vivo at 0.25 mg/kg: 27%
[6]
  inhibition in vivo at 0.5 mg/kg: 50%
[7]
  inhibition in vivo at 0.5 mg/kg: 62%
[3]
  inhibition at 1 µM: 100%

## Cc1ccc(-n2c(=O)c3c(c4cccnc42)OCC3)cc1
[8]
  inhibition at 10 µM: 59%
[1]
  inhibition at 3 µM: 28%

## O=c1c2c(c3cccnc3n1-c1ccccc1)OCC2
[9]
  inhibition in vivo at 12 mg/kg: 86%
[10]
  inhibition in vivo at 25 mg/kg: 79%
[11]
  inhibition in vivo at 3 mg/kg: 42%
[12]
  inhibition in vivo at 6.25 mg/kg: 65%
[8]
  inhibition at 10 µM: 72%
[1]
  inhibition at 3 µM: 54%
[13]
  inhibition in vivo at 12.5 mg/kg: 90%

## COc1ccc(-n2c(=O)c3c(c4cccnc42)OCCC3)cc1
[1]
  inhibition at 3 µM: 28%

## O=c1c2c(c3cccnc3n1-c1ccc(Cl)cc1)OCC2
[1]
  inhibition at 3 µM: 33%

## O=c1c2c(c3cccnc3n1-c1ccc(Cl)cc1)OCCC2
[1]
  inhibition at 3 µM: 33%

## CC1Cc2c(c3cccnc3n(-c3ccccc3)c2=O)O1 (stereo unspecified)
[8]
  inhibition at 10 µM: 60%

## Cc1ccc(-n2c(=O)c3c(c4cccnc42)OCCC3)cc1
[1]
  inhibition at 3 µM: 27%

## O=c1c2c(c3cccnc3n1-c1ccccc1)OCCCC2
[2]
  inhibition in vivo at 2 mg/kg: 71%
[1]
  inhibition at 3 µM: 75%

## O=c1c2c(c3cccnc3n1-c1cccc(Cl)c1)OCC2
[14]
  inhibition in vivo at 10 mg/kg: 93%
[15]
  inhibition in vivo at 2 mg/kg: 62%
[2]
  inhibition in vivo at 2 mg/kg: 87%
[1]
  inhibition at 3 µM: 71%
[16]
  inhibition in vivo at 1 mg/kg: 21%

## O=c1c2c(c3cccnc3n1-c1ccc(Cl)c(Cl)c1)OCCC2
[1]
  inhibition at 3 µM: 48%

## O=c1c2c(c3cccnc3n1-c1ccccc1)OCCC2
[10]
  inhibition in vivo at 25 mg/kg: 62%
[17]
  inhibition in vivo at 3.13 mg/kg: 20%
[12]
  inhibition in vivo at 6.25 mg/kg: 51%
[8]
  inhibition at 10 µM: 62%
[1]
  inhibition at 3 µM: 26%
[13]
  inhibition in vivo at 12.5 mg/kg: 43%

## O=c1c2c(c3cccnc3n1-c1ccc(Cl)c(Cl)c1)OCC2
[18]
  inhibition in vivo at 5 mg/kg: 0%
[8]
  inhibition at 10 µM: 63%
[1]
  inhibition at 3 µM: 62%
